Laboratory results taken from patent US11834717B2, “Biomarkers for cancer diagnosis, prediction or staging” (Universite du Luxembourg, priority 2017, dated 2023).

Tested on: MYO5B expression in CRC cell lines
Test: MYO5B expression in CRC cell lines after 5-aza-dC (DAC) treatment, RT-qPCR
Type: cell-based
Settings: colon cancer (CRC) cell lines, 5 μM for four days vs vehicle (DMSO), 2-4 independent experiments, FIG. 3A
Description: All CRC cell lines were obtained from the American Type Culture Collection (ATCC, Rockville, USA) and maintained in recommended culture conditions. For methylation analysis, cells were treated with 5 μM 5-Aza-2′-Deoxycytidine (5-aza-dC/DAC, Sigma) or vehicle (DMSO) for four days followed by RNA extraction.
PCR conditions were used as previously described (Letellier et al, 2014) and the expression levels of the gene of interest were normalized against the housekeeping gene HPRT (Erickson et al, 2009). For bulk tissue and CRC cell lines, the RNA was extracted with the Mirneasy kit from Qiagen and the cDNA was obtained with the mirscript II (Qiagen). PCR cycling conditions as well as quality control and normalization steps were done in qBase+ (Biogazelle), using 2 reference genes as previously described (Qureshi-Baig et al, 2016; Ullmann et a, 2016).
Over the last years, hypermethylation of tumor suppressor genes has been reported in different cancer types (Biswas & Rao, 2017). In a similar manner, MYO5B is methylated in both gastric tumors (Dong et al, 2013) and leukemias (Kuang et al, 2008). Thus, it was analyzed whether promoter methylation could explain the observed down-regulation of MYO5B in CRC. To this end, the expression of MYO5B in CRC cell lines was investigated first after treatment with 5-Aza-2′-Deoxycytidine (5-aza-dC/DAC), a known demethylating agent.

In the case of Nc1ncn([C@H]2C[C@H](O)[C@@H](CO)O2)c(=O)n1 [DAC, 5-Aza-2′-Deoxycytidine], the “change of MYO5B basal expression levels after DAC treatment” value is reported as “minor changes” and the “change of MYO5B basal expression levels after DAC treatment” value (listed as 5-aza-dC) is reported as “does not increase”.
